Results on one compound are retold here after US11660303B2, “2-phenylimidazo[4,5-b]pyridin-7-amine derivates useful as inhibitors of mammalian tyrosine kinase ROR1 activity” (KANCERA AB, priority 2016, dated 2023).

Structures are written as SMILES.

What all share (type): cell-based
One experiment deals with HPB. Put plainly: MTT cytotoxicity assay, HPB. The note with it: T-cell acute lymphoblastic leukemia (T-ALL), incubation 48 h. As to the method: (§1) The MTT assay (Sigma-Aldrich) was used to measure cytotoxic capability of the ROR1 tyrosine kinase inhibitors (ROR1-TKI). Briefly, 2×10^4 cancer cells were incubated in triplicates in 200 μL of RPMI-1640 containing 10% FCS in 96 well plates. ROR1-TKI (dissolved in DMSO), were added to the cells. Cells treated with DMSO were used as negative control. Cells were incubated for 48, 72 or 96 h. An amount of 20 μL MTT solution was added and the cell suspension was incubated for 4 h at 37 degrees C. The reaction was stopped by adding 100 μL MTT solvent (10% SDS in 0.01 M HCl) and was incubated for further 2-4 h. The plate was then read by a microplate reader at 570 nm.
(§2) Results, in terms of IC50 (μM), are shown in Table 4 for a representative compound of the invention, viz. Example 172.
On the technique in general: Tetrazolium assays rely on reduction of a dye to a coloured formazan, in cell work by metabolically active cells.

A further experiment has as its system MEC-2. Put plainly: MTT cytotoxicity assay, MEC-2. The note with it: MEC2, MEC-2, CLL cell line, DSMZ bank, (ACC 500), incubation 48 h. The method, then: as §1, §2
For another experiment, the system named is Caov3. Put plainly: MTT cytotoxicity assay, Caov3. Conditions: Homo sapiens, Caov-3, Caov3, Ovarian cancer (OC), incubation 48 h. The method, then: as §1, §2
Another experiment deals with EHEB. Put plainly: MTT cytotoxicity assay, EHEB. Conditions: CLL cell line, DSMZ bank, (ACC 67), incubation 48 h. The method, then: as §1, §2
Experiment [1] has as its system Reh. As to the kind of experiment: Flow cytometry Annexin V/PI apoptosis assay, Reh. The note with it: Homo sapiens, Non-T-cell non-B-cell-acute lymphoblastic leukemia, incubation 48 h. The method, then: (§3) Flow Cytometry Annexin V/PI Apoptosis Assay
(§4) An amount of 1 ml (10^5 cells/mL) of cells were seeded in each well of 6-well plates with and without compounds for 48 h. Cells were collected, washed with PBS, suspended in 100 μL of Annexin-V binding buffer (BD Biosciences) containing FITC-conjugated Annexin-V and PI (BD Biosciences) and incubated at room temperature in the dark for 20 min. After 20 min of incubation, 150 μL Annexin-V binding buffer was added. Viable cells were identified as the double negative Annexin-V and PI population. Samples were analyzed by a FACS Canto II Flow-cytometer (BD Biosciences).
as §2
(In general: Flow cytometry measures light scatter and fluorescence of single cells or particles in a stream.)

The next experiment relates to H209. Put plainly: Alamar Blue cell viability assay, H209. The note with it: Homo sapiens, NCI-H209; H209, Small cell lung cancer, alamarBlue, incubation 72 h. The method, then: (§5) Alamar Blue Cell Viability Assay
(§6) Cells were plated 12 hours prior to start of drug treatment, which lasted for 72 hours for all cytotoxicity experiments. Cell viability was estimated by alamarBlue™ Cell Viability Reagent (ThermoFisher, Waltham, Mass.) per manufacturer's instructions.
as §2

Another experiment has as its system MDA-V. Put plainly: Flow cytometry Annexin V/PI apoptosis assay, MDA-V. Conditions: Hodgkin’s Lymphoma (HL), incubation 48 h. As to the method: as §3, §4, §2
The subject of the next experiment is KE37. Put plainly: MTT cytotoxicity assay, KE37. Conditions: Homo sapiens, KE-37, KE37, T-cell acute lymphoblastic leukemia (T-ALL), incubation 48 h. The method, then: as §1, §2
A further experiment deals with JeKo1. Put plainly: MTT cytotoxicity assay, JeKo1. The note with it: Homo sapiens, JeKo-1, JeKo1, Mantle Cell Lymphoma (MCL), incubation 96 h. The method, then: as §1, §2
The next experiment deals with HCC827. Put plainly: MTT cytotoxicity assay, HCC827. The note with it: Homo sapiens, HCC827, Non-small cell lung cancer, incubation 72 h. As to the method:
as §1, §2

A further experiment concerns H23. Put plainly: MTT cytotoxicity assay, H23. Conditions: Homo sapiens, NCI-H23, H23, Non-small cell lung cancer, incubation 72 h. The method, then:
as §1, §2

A further experiment relates to SKOV3. Put plainly: Flow cytometry Annexin V/PI apoptosis assay, SKOV3. The note with it: Homo sapiens, SK-OV-3, SKOV3, Ovarian cancer (OC), incubation 48 h. As to the method: as §3, §4, §2
A further experiment deals with JVM2. As to the kind of experiment: MTT cytotoxicity assay, JVM2. The note with it: Homo sapiens, JVM-2, JVM2, Mantle Cell Lymphoma (MCL), incubation 96 h. The method, then: as §1, §2
A further experiment relates to MIA PaCa-2. Put plainly: MTT cytotoxicity assay, MIA PaCa-2. The note with it: Homo sapiens, MIA PaCa-2, Pancreatic cancer, incubation 48 h. The method, then:
as §1, §2

For another experiment, the system named is H146. As to the kind of experiment: Alamar Blue cell viability assay, H146. Conditions: Homo sapiens, NCI-H146; H146, Small cell lung cancer, alamarBlue, incubation 72 h. As to the method: as §5, §6, §2
For orientation: The colour change of resazurin is a common sign of viable cells or microbes.

The test system of experiment [2] is Reh. Put plainly: MTT cytotoxicity assay, Reh. Conditions: Homo sapiens, Non-T-cell non-B-cell-acute lymphoblastic leukemia, incubation 48 h. As to the method: as §1, §2
A further experiment concerns H211. As to the kind of experiment: Alamar Blue cell viability assay, H211. Conditions: Homo sapiens, NCI-H211; H211, Small cell lung cancer, alamarBlue, incubation 72 h. As to the method:
as §5, §6, §2

Another experiment concerns H1963. As to the kind of experiment: Alamar Blue cell viability assay, H1963. Conditions: Homo sapiens, NCI-H1963; H1963, Small cell lung cancer, alamarBlue, incubation 72 h. As to the method:
as §5, §6, §2

The subject of the next experiment is RC-KB. Put plainly: MTT cytotoxicity assay, RC-KB. Conditions: Diffuse large B-cell lymphoma (DLBCL), incubation 48 h. As to the method: as §1, §2
A further experiment has as its system Mino. As to the kind of experiment: MTT cytotoxicity assay, Mino. The note with it: Homo sapiens, Mantle Cell Lymphoma (MCL), incubation 96 h. As to the method:
as §1, §2

A further experiment has as its system HDLM2. As to the kind of experiment: Flow cytometry Annexin V/PI apoptosis assay, HDLM2. The note with it: Homo sapiens, HDLM-2, HDLM2, Hodgkin’s Lymphoma (HL), incubation 48 h. As to the method: as §3, §4, §2

For `CCOCCN1CCN(c2ccc(-c3nc4c(NC5CCN(CC)CC5)c(Br)cnc4[nH]3)cc2)CC1` [Example 172, 6-Bromo-2-{4-[4-(2-ethoxyethyl)piperazin-1-yl]phenyl}-N-(1-ethylpiperidin-4-yl)-3H-imidazo[4,5-b]pyridin-7-amine], the IC50 in the experiment on HPB was found to be 100 nM; with MEC-2, 110 nM; in the experiment on Caov3 it was 250 nM; with EHEB, 200 nM; in the experiment on Reh [1], 41 nM; with H209, 240 nM. Also, the IC50 was determined as 100 nM with MDA-V; 200 nM in the experiment on KE37; 75 nM in the experiment with JeKo1; 100 nM in the experiment with HCC827; 150 nM in the experiment on H23; 610 nM in the experiment with SKOV3. The IC50 in the experiment with JVM2 came to 200 nM; in the experiment with MIA PaCa-2, 100 nM; in the experiment on H146, 230 nM; with Reh [2], 50 nM; in the experiment on H211, 180 nM; in the experiment with H1963, 200 nM. Besides, the values for the IC50 in the experiment with RC-KB, in the experiment on Mino and in the experiment with HDLM2 were 100 nM, 50 nM and 100 nM, respectively.

By IC50 is commonly meant the concentration needed to halve the response being measured. Low values mean higher potency, high ones lower potency.
